Experimental data as given in patent US20220153746A1, “NITROGEN OXIDE-DONATING PDE-5 AND/OR PDE-6 INHIBITOR COMPOUNDS, AND USES THEREOF” (ILDONG PHARMACEUTICAL CO., LTD., priority 2020, published 2022).
Where two headings read alike, the source gives them in different places.

Assay: TD Phase (Groups 1 and 3): plasma and ocular tissue concentrations and pharmacokinetics of Compound 18 and its metabolite Compound 4 after once daily ocular instillation of Compound 18 nanosuspension for 7 days
Assay type: in vivo, New Zealand white rabbits
Settings: for concentration at 2 h / concentration at 4 h / concentration at 8 h / concentration at 0.5 h / concentration at 1 h / Cmax / Tmax / AUC(0-t) / half-life: male, New Zealand white, rabbit; for concentration at 2 h / concentration at 4 h / concentration at 8 h / concentration at 0.5 h / concentration at 1 h: TD Phase; for concentration at 2 h: Group 3, 2 h; for concentration at 4 h: Group 3, 4 h; for concentration at 8 h: Group 3, 8 h; for concentration at 0.5 h: Group 3, 0.5 h; for concentration at 1 h: Group 1, 1 h; for Cmax / Tmax / AUC(0-t) / half-life: topical or ocular; for AUC(0-t): read-out: AUC0-8
From the text: This example illustrates the procedures and results for the levels of Compound 18 and its metabolite Compound 4 in plasma and ocular tissues of normotensive rabbits following ocular instillation of Compound 18 once daily for 7 consecutive days.
Twenty five (25) male New Zealand white rabbits were divided into 5 groups of varying amounts of animals per group.
The Test article, Compound 18 was formulated as a 2% nanosuspension in DI water containing 0.2% PS80 (polyoxyethylenesorbitan, monooleate (Tween 80)) and 0.4% HPMC (hydroxypropylmethylcellulose) at pH 6.77. Referred to herein as “Compound 18 nanosuspension.”
The study consisted of three groups (Groups 1-3) of 19 male rabbits (NZW) that underwent once daily morning ocular installation (1 eyedrop) for 7 consecutive days (Day 0-6). Groups 4-5 each consisted of 3 male rabbits (NZW) that were not dosed.
Blood samples (1 mL) were collected from the jugular vein at the intervals set out below for each group. The samples were then inverted several times following collection and held on wet ice until centrifuged. Samples were centrifuged within 60 minutes of collection under refrigeration (set at 5° C. for 10 minutes at 2000 g.
Group 1 (Pilot Study, terminal blood collection): blood was collected from 3 animals at 1 hour post day 7 dose of Compound 18 nanosuspension.
Group 3 (TD Phase, terminal blood collection): blood was collected from 3 animals at 0.5 hour, 3 animals at 2 hours, 3 animals at 4 hours, and 3 animals at 8 hours post day 7 dose of Compound 18 nanosuspension.
(§1) Group 1 (Pilot Study): 3 animals were terminated at 1 hour post Day 7 dose of Compound 18 nanosuspension. Following blood collection and termination, ocular tissues (aqueous humor, vitreous humor, cornea, iris/ciliary body, lens, optic nerve, retina, sclera/choroid, and trabecular meshwork) were collected from each animal and the tissue weights were recorded. Note: sclera and choroid were collected together. Iris and ciliary body were collected together.
as §1, with “3 (TD Phase):” for “1 (Pilot Study):”, “0.5 hour, 3 animals at 2 hours, 3 animals at 4 hours, and 3 animals at 8 hours” for “1 hour”
Plasma and tissue samples from treated animals (Groups 1-3) were analyzed for Compound 18 and its metabolite Compound 4 concentrations by LC-MS/MS.
Pharmacokinetic analysis was conducted using WinNonlin Version 6.2.1 (Pharsight, Mountain View, Calif.), operating as a validated software system. Noncompartmental analysis was conducted using the extravascular administration model for ocular instillation dosing.
The peak plasma and ocular tissue concentration, time to achieve peak plasma and ocular tissue concentration, half-life, and area under the plasma and ocular tissue concentration-time curve (Cmax, Tmax, T1/2, and AUC) were calculated from the TD phase combined with the pilot study mean animal plasma and ocular tissue concentrations for each sampling time/dose group for Compound 18 and its metabolite Compound 4.
BA Assay: Quantitation Range 0.05 to 100 ng/mL for Compound 18, 0.15 to 100 ng/mL for Compound 4.
3. Pipet 50 μL of each type of pre-spiked ocular tissue samples (AH/VH) for QC samples, 50 μL of incurred aqueous humor, and vitreous humor sample (if applicable) into a 96 well plate.
Ocular Tissues Homogenate Preparation: Incurred rabbit ocular tissues were weighed in Genogrinder tubes (plastic tubes with small beads) at the time of removal from the animal and stored frozen (<−70° C.) until analysis. The rabbit incurred ocular tissues were thawed on wet ice. […]

[1] = iris/ciliary body, topical, 2 mg/day, Mean, read-out: Final Compound 18 Iris/Ciliary Body Conc.
[2] = lens homogenate, topical, 2 mg/day, individual animals, homogenate dilution factor 5, read-out: Compound 18 Lens Homogenate Conc.
[3] = lens, topical, 2 mg/day, Mean, read-out: Final Compound 18 Lens Conc.
[4] = lens, topical, 2 mg/day, individual animals, BQL set to 0, read-out: Final Compound 18 Lens Conc.
[5] = optic nerve, other: ocular instillation (eye drop), 0.798 mg/kg/day, Mean, read-out: Final Compound 18 Optic Nerve Conc.
[6] = plasma, other: ocular instillation (eye drop), 0.8 mg/kg/day, Mean, BQL set to 0, read-out: Compound 18 Plasma Conc.
[7] = plasma, other: ocular instillation (eye drop), 0.8 mg/kg/day, individual animals, read-out: Compound 18 Plasma Conc.
[8] = plasma, other: ocular instillation, 0.8 mg/kg/day, Mean, BQL set to 0, read-out: Compound 18 Plasma Conc.
[9] = retina, other: ocular instillation (eye drop), 0.798 mg/kg/day, Mean, read-out: Final Compound 18 Retina Conc.
[10] = sclera/choroid, other: ocular instillation (eye drop), 0.798 mg/kg/day, Mean, read-out: Final Compound 18 Sclera/Choroid Conc.
[11] = 0.8 mg/kg/day, aqueous humor, Day 7, from mean concentrations
[12] = 0.8 mg/kg/day, cornea, Day 7, from mean concentrations
[13] = 0.8 mg/kg/day, iris/ciliary body, Day 7, from mean concentrations
[14] = 0.8 mg/kg/day, lens, Day 7, from mean concentrations
[15] = 0.8 mg/kg/day, optic nerve, Day 7, from mean concentrations
[16] = 0.8 mg/kg/day, plasma, Day 7, from mean concentrations
[17] = 0.8 mg/kg/day, retina, Day 7, from mean concentrations
[18] = 0.8 mg/kg/day, sclera/choroid, Day 7, from mean concentrations
[19] = 0.8 mg/kg/day, trabecular meshwork, Day 7, from mean concentrations
[20] = 0.8 mg/kg/day, vitreous humor, Day 7, from mean concentrations
[21] = trabecular meshwork, other: ocular instillation (eye drop), 0.798 mg/kg/day, Mean, read-out: Final Compound 18 Trabecular Meshwork Conc.
[22] = vitreous humor, other: ocular instillation (eye drop), 0.8 mg/kg/day, Mean, BQL set to 0, read-out: Compound 18 Vitreous Humor Conc.
[23] = vitreous humor, other: ocular instillation (eye drop), 0.8 mg/kg/day, individual animals, read-out: Compound 18 Vitreous Humor Conc.

`CCCc1nn(C)c2c(=O)[nH]c(-c3cc(S(=O)(=O)N4CC(CCCO[N+](=O)[O-])C4)ccc3OCC)nc12` [Compound 18, 3-(1-((4-ethoxy-3-(1-methyl-7-oxo-3-propyl-6,7-dihydro-1H-pyrazolo[4,3-d]pyrimidin-5-yl)phenyl)sulfonyl)azetidin-3-yl)propyl nitrate] showed a concentration at 2 h [1] of 5.56 ng/g, a concentration at 4 h [1] of 4.87 ng/g and a concentration at 8 h [1] of 0.967 ng/g. The concentration at 0.5 h [2] was 1.27 ng/mL, the concentration at 4 h [2] was 0.0767 ng/mL and the concentration at 8 h (lens, other: ocular instillation (eye drop), 0.798 mg/kg/day, Mean, read-out: Final Compound 18 Lens Conc.) was 0 ng/g. The concentration at 1 h [3] was 0 ng/g, the concentration at 1 h [4] was 0 ng/g and the concentration at 0.5 h [3] was 2.12 ng/g. The concentration at 2 h [3] was 0 ng/g, the concentration at 2 h [4] was 0 ng/g and the concentration at 4 h [3] was 0.128 ng/g. The concentration at 8 h [4] was 0 ng/g, the concentration at 1 h (optic nerve homogenate, other: ocular instillation (eye drop), 0.798 mg/kg/day, individual animals, homogenate dilution factor 20, read-out: Compound 18 Optic Nerve Homogenate Conc.) was 11.8 ng/mL and the concentration at 1 h [5] was 231 ng/g. For the same compound, the concentration at 1 h (optic nerve, other: ocular instillation (eye drop), 0.798 mg/kg/day, individual animals, read-out: Final Compound 18 Optic Nerve Conc.) was 236 ng/g, the concentration at 0.5 h [5] was 110 ng/g and the concentration at 2 h [5] was 378 ng/g. It also gave a concentration at 4 h [5] of 128 ng/g, a concentration at 8 h [5] of 61.6 ng/g and a concentration at 2 h [6] of 0.0397 ng/mL. It also gave a concentration at 2 h [7] of 0.119 ng/mL, a concentration at 8 h [6] of 0.0172 ng/mL and a concentration at 8 h [7] of 0.0517 ng/mL. For the same compound, the concentration at 1 h [8] was 0.0407 ng/mL, the concentration at 1 h (plasma, other: ocular instillation, 0.8 mg/kg/day, individual animals, read-out: Compound 18 Plasma Conc.) was 0.0641 ng/mL and the concentration at 0.5 h [8] was 0.261 ng/mL. The concentration at 0.5 h (retina homogenate, other: ocular instillation (eye drop), 0.798 mg/kg/day, individual animals, homogenate dilution factor 20, read-out: Compound 18 Retina Homogenate Conc.) was 0.798 ng/mL, the concentration at 1 h [9] was 18.1 ng/g and the concentration at 0.5 h [9] was 22 ng/g. It also gave a concentration at 0.5 h (retina, other: ocular instillation (eye drop), 0.798 mg/kg/day, individual animals, BQL set to 0, read-out: Final Compound 18 Retina Conc.) of 16 ng/g, a concentration at 2 h [9] of 34.8 ng/g and a concentration at 4 h [9] of 27.3 ng/g. It also gave a concentration at 8 h [9] of 7.17 ng/g, a concentration at 1 h (sclera/choroid homogenate, other: ocular instillation (eye drop), 0.798 mg/kg/day, individual animals, homogenate dilution factor 8, read-out: Compound 18 Sclera/Choroid Homogenate Conc.) of 3.89 ng/mL and a concentration at 1 h [10] of 45.3 ng/g. For the same compound, the concentration at 1 h (sclera/choroid, other: ocular instillation (eye drop), 0.798 mg/kg/day, individual animals, read-out: Final Compound 18 Sclera/Choroid Conc.) was 31.1 ng/g, the concentration at 0.5 h [10] was 107 ng/g and the concentration at 2 h [10] was 246 ng/g. It also gave a concentration at 4 h [10] of 241 ng/g, a concentration at 8 h [10] of 26.8 ng/g and a Cmax [11] of 0.063 ng/mL. It also gave a Tmax [11] of 1 h, an AUC(0-t) [11] of 0.0158 ng·h/mL and a Cmax [12] of 181 ng/g. It also gave a Tmax [12] of 1 h, a half-life [12] of 1.33 h and a Cmax [13] of 107 ng/g. It also gave a Tmax [13] of 1 h, a half-life [13] of 2.25 h and a Cmax [14] of 2.12 ng/g. The Tmax [14] was 0.5 h, the half-life [14] was 0.865 h and the Cmax [15] was 378 ng/g. It also gave a Tmax [15] of 2 h, a half-life [15] of 2.43 h and a Cmax [16] of 0.261 ng/mL. The Tmax [16] was 0.5 h, the AUC(0-t) [16] was 0.255 ng·h/mL and the Cmax [17] was 34.8 ng/g. For the same compound, the Tmax [17] was 2 h, the half-life [17] was 2.54 h and the Cmax [18] was 246 ng/g. The Tmax [18] was 2 h, the half-life [18] was 1.76 h and the Cmax [19] was 7.67 ng/g. For the same compound, the Tmax [19] was 1 h, the half-life [19] was 2.64 h and the Cmax [20] was 0.0257 ng/mL. For the same compound, the Tmax [20] was 0.5 h, the AUC(0-t) [20] was 0.0242 ng·h/mL and the Cmax (Cornea, Day 7, Compound 18 0.8 mg/kg ocular instillation once daily, Groups 1 and 3) was 181 ng/g. For the same compound, the concentration at 1 h [21] was 7.67 ng/g, the concentration at 0.5 h [21] was 7.01 ng/g and the concentration at 2 h [21] was 11.8 ng/g. For the same compound, the concentration at 4 h [21] was 5.52 ng/g, the concentration at 8 h (trabecular meshwork, other: ocular instillation, 0.8 mg/kg/day, Mean, read-out: Final Compound 18 Trabecular Meshwork Conc.) was 1.93 ng/g and the concentration at 0.5 h [22] was 0.0257 ng/mL. The concentration at 0.5 h [23] was 0.0771 ng/mL, the concentration at 2 h [22] was 0.0228 ng/mL and the concentration at 2 h [23] was 0.0683 ng/mL. The AUC0-8 (optic nerve, Day 7, from mean concentrations) was 1302 ng·h/g, the AUC0-8 (retina, Day 7, from mean concentrations) was 173 ng·h/g and the AUC0-8 (sclera/choroid, Day 7, from mean concentrations) was 1234 ng·h/g. The AUC0-8 (trabecular meshwork, Day 7, from mean concentrations) was 32.4 ng·h/g.
